Measured values published in patent US20240294531A1, “COVALENT HETEROCYCLES AND USES THEREOF” (Kumquat Biosciences Inc., priority 2022, published 2024).
pIC50: −log10 of the molar value.

Tests used:
Type in all cases: binding
BTK wildtype protein [1] = molecular target: T1, BTK wildtype protein (Homo sapiens (Human), UniProt Q06187); assay: Kinact/KI determination for BTK protein inhibitors (Kobs)
Protocol: Test compounds were prepared as 10 mM stock solutions in DMSO (Fisher cat #BP231-100). Human recombinant BTK wildtype protein 393-659 or BTK C481S protein 393-659 was produced in house or purchased from Saromics Biostructures AB (Lund, Sweden). BTK protein was diluted to 1 μM in buffer (20 mM Hepes, pH 7.5, 150 mM NaCl, 1 mM MgCl2, 1 mM DTT). For testing BTK modification, compounds were diluted to 50× final test concentration in DMSO in 96-well storage plates. 1 μL of the diluted 50× compounds were added to appropriate wells in the PCR plate (Fisher cat #AB-0800). Increasing concentrations of compounds were added to separate wells, resulting in final assay compound concentrations of 3 μM, 10 μM, 30 μM and 100 μM. 49 μL of the stock protein solution was added to each well of the 96-well PCR plate. Reactions were mixed carefully. The plate was sealed well with aluminum plate seal and stored in a drawer at room temperature. After different incubation times, the reactions were quenched by adding 5 μL of 2% formic acid (Fisher cat #A117-50) in MilliQ H2O to each well followed by mixing with a pipette. The plate was then resealed with aluminum seal and stored until mass spectrometry analysis.
The extent of covalent modification of BTK proteins was determined by liquid chromatography electrospray mass spectrometry analysis of the intact proteins using a Thermo Q-Exactive Plus mass spectrometer. 20 μL of sample was injected onto a bioZen 3.6 μm Intact C4 column (Phenomenex cat #00B-4767-AN) placed in a column oven set to 40° C. and separated using a LC gradient from 20% to 60% solvent B. Solvent A was 0.1% formic acid and solvent B was 0.1% formic acid in acetonitrile. HESI source settings were set to 40, 5 and 1 for the sheath, auxiliary and sweep gas flow, respectively. The spray voltage was 4 kV, and the capillary temperature was 320° C. S-lens RF level was 50 and auxiliary gas heater temperature was set to 200° C. The mass spectrometry was acquired using a scan range from 650 to 1750 m/z using positive polarity at a mass resolution of 70,000, AGC target of 1e6 ions and maximum injection time of 250 ms. The recorded protein mass spectrum was deconvoluted from the raw data file using Protein Deconvolution v4.0 (Thermo). The protein mass, adduct masses and their corresponding peak intensities were exported to Excel (Microsoft). The peak intensities for the unmodified and modified protein were used to calculate the percent covalent modification of the BTK protein based on the following equation: % BTK protein modification=((BTK−compound)/(BTK)+(BTK−Compound))*100.
The Kinact/KI is a rate constant describing the efficiency of covalent bond formation resulting from the potency (KI) of the first reversible binding event and the maximum potential rate (Kinact) of inactivation. The percent […] protein modification was plotted as a function of time using Prism version 9.4.1 (GraphPad), and the observed rate of modification (Kobs), a first-order rate constant with units of inverse time, was estimated using nonlinear regression at each compound concentration. […] If Kobs is increasing with compound concentration, KI is higher than 3 μM. Kinact/KI can be estimated by plotting Kobs values against each compound concentration used in separate reactions. The Kobs values are fitted to determine Kinact and KI using the following equation, Kobs=(Kinact×[compound conc])/(KI+[compound conc]).
Target sequence in this assay (Q06187 393-659): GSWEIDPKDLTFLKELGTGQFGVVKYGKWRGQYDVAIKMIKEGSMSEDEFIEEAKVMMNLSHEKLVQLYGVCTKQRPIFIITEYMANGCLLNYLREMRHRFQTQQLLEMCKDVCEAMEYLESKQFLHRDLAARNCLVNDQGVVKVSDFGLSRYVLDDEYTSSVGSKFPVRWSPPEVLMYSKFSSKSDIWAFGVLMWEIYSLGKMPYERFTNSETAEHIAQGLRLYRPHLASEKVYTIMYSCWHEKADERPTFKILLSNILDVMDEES

BTK wildtype protein [2] = molecular target: T1, BTK wildtype protein; assay: BTK wildtype HTRF displacement assay; conditions: 1-hour incubation; read-out: BTK (wt) IC50
Procedure, shortened: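 Tracer-displacement HTRF format: compound and tracer 239 compete at the BTK active site, detected via anti-GST-Tb on GST-tagged full-length enzyme. One-hour room-temperature incubation; compounds dosed at six four-fold steps down from 5 μM. Percent inhibition versus DMSO gives IC50 by constrained four-parameter logistic fit.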
Target sequence in this assay (Q06187 2-659): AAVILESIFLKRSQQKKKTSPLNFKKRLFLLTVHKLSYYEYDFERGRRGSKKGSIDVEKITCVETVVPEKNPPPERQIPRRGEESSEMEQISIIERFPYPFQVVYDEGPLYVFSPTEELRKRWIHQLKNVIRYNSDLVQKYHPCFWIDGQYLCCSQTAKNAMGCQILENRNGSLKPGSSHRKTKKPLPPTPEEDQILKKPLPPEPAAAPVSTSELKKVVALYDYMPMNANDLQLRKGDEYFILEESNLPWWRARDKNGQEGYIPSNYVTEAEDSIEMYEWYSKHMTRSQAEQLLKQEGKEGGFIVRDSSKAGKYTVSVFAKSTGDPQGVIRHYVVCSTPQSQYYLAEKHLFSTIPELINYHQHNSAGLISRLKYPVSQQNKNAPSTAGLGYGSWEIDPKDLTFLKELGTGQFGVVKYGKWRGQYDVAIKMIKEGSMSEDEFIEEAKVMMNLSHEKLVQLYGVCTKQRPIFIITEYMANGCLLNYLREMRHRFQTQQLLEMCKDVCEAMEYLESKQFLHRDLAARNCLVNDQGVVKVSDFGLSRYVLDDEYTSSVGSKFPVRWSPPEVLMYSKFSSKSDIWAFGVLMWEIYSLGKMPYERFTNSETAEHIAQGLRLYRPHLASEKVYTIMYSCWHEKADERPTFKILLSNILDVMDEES

BTK C481S protein = BTK C481S protein (Homo sapiens (Human), UniProt Q06187, C481S); assay: BTK C481S HTRF displacement assay; conditions: 1-hour incubation
Procedure, shortened: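 Tracer displacement read by HTRF after 1 hour at room temperature: GST-BTK C481S 2-659, 50 nM tracer 239 (Kd 54 nM), anti-GST antibody, compound in six four-fold doses from 5 μM. Percent inhibition versus DMSO fitted (bottom 0, top 100) for IC50, converted to KI via Cheng-Prusoff.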

BTK C481S protein, sequence (Q06187 2-659 C481S): as the sequence (Q06187 2-659) above, with C480S counted along it

Row | Compound | BTK (wt) Kobs (BTK wildtype protein [1]) | pIC50 (BTK wildtype protein [2]) | pIC50 (BTK C481S protein)
1 | NC(=O)c1c(-c2ccc(Oc3ccccc3)cc2)nn2c1NCCC2C1CCN(C(=O)n2cncn2)CC1 (stereo not shown) [Compound 136, 7-(1-(1H-1,2,4-triazole-1-carbonyl)piperidin-4-yl)-2-(4-phenoxyphenyl)-4,5,6,7-tetrahydropyrazolo[1,5-a] pyrimidine-3-carboxamide] | 132, 134, 136, 137, 138, 140, 150, 152, 153, 154, 155, M^−1 · s^−1 | ≥ 6.00 | ≥ 6.00
2 | COc1ccc(F)cc1C(=O)NCc1ccc(-c2nn(C[C@@H]3CCC[C@H]3CN(C)C(=O)n3cncn3)c3ncnc(N)c23)cc1 [Compound 153, N-(((1R,2R)-2-((4-amino-3-(4-((5-fluoro-2-methoxybenzamido)methyl)phenyl)-1H-pyrazolo[3,4-d]pyrimidin-1-yl)methyl)cyclopentyl)methyl)-N-methyl-1H-1,2,4-triazole-1-carboxamide] | 132, 134, 136, 137, 138, 140, 150, 152, 153, 154, 155, M^−1 · s^−1 | ≥ 6.00 | ≥ 6.00
3 | COc1ccc(F)cc1C(=O)NCc1ccc(-c2nn(C3CCC(N(C)C(=O)n4cncn4)C3)c(N)c2C(N)=O)cc1 (stereo not shown) [Compound 150, N-(3-(5-amino-4-carbamoyl-3-(4-((5-fluoro-2-methoxybenzamido)methyl)phenyl)-1H-pyrazol-1-yl)cyclopentyl)-N-methyl-1H-1,2,4-triazole-1-carboxamide] | 132, 134, 136, 137, 138, 140, 150, 152, 153, 154, 155, M^−1 · s^−1 |  | ≥ 6.00
4 | NC(=O)c1c(-c2ccc(Oc3ccccc3)cc2)nn2c1NCCC2[C@H]1CCCN1C(=O)n1cncn1 (stereo partly drawn) [Compound 140, 7-((R)-1-(1H-1,2,4-triazole-1-carbonyl)pyrrolidin-2-yl)-2-(4-phenoxyphenyl)-4,5,6,7-tetrahydropyrazolo[1,5-a] pyrimidine-3-carboxamide] | 132, 134, 136, 137, 138, 140, 150, 152, 153, 154, 155, M^−1 · s^−1 | < 6.00 | ≥ 6.00
5 | COc1ccc(F)cc1C(=O)NCc1ccc(-c2nn(C3CCCC4(CCN4C(=O)n4cncn4)C3)c3ncnc(N)c23)cc1 (stereo not shown) [Compound 152, N-(4-(1-(1-(1H-1,2,4-triazole-1-carbonyl)-1-azaspiro[3.5]nonan-6-yl)-4-amino-1H-pyrazolo[3,4-d]pyrimidin-3-yl)benzyl)-5-fluoro-2-methoxybenzamide] | 132, 134, 136, 137, 138, 140, 150, 152, 153, 154, 155, M^−1 · s^−1 |  | ≥ 6.00
6 | COc1ccc(F)cc1C(=O)NCc1ccc(-c2nn(C[C@H](C(C)C)N(C)C(=O)n3cncn3)c3ncnc(N)c23)cc1 [Compound 259, (S)-N-(1-(4-amino-3-(4-((5-fluoro-2-methoxybenzamido)methyl)phenyl)-1H-pyrazolo[3,4-d]pyrimidin-1-yl)-3-methylbutan-2-yl)-N-methyl-1H-1,2,4-triazole-1-carboxamide] | 248, 249, 250, 253, 254, 256, 259, 260, 261, 264, 265, M^−1 · s^−1 | < 6.00 | < 6.00
7 | COc1ccc(F)cc1C(=O)NCc1ccc(-c2nn(C(C)C3CCCCN3C(=O)n3cncn3)c(N)c2C(N)=O)cc1 (stereo not shown) [Compound 249, 1-(1-(1-(1H-1,2,4-triazole-1-carbonyl)piperidin-2-yl)ethyl)-5-amino-3-(4-((5-fluoro-2-methoxybenzamido)methyl)phenyl)-1H-pyrazole-4-carboxamide] | 248, 249, 250, 253, 254, 256, 259, 260, 261, 264, 265, M^−1 · s^−1 | ≥ 6.00 | ≥ 6.00
8 | COc1ccc(F)cc1C(=O)NCc1ccc(-c2nn(C(C)C(C)CN(C)C(=O)n3cncn3)c3ncnc(N)c23)cc1 (stereo not shown) [Compound 248, N-(3-(4-amino-3-(4-((5-fluoro-2-methoxybenzamido)methyl)phenyl)-1H-pyrazolo[3,4-d]pyrimidin-1-yl)-2-methylbutyl)-N-methyl-1H-1,2,4-triazole-1-carboxamide] | 248, 249, 250, 253, 254, 256, 259, 260, 261, 264, 265, M^−1 · s^−1 | ≥ 6.00 | 
9 | COc1ccc(F)cc1C(=O)NCc1ccc(-c2nn(C3CCCC(CN(C)C(=O)n4cncn4)C3)c3ncnc(N)c23)cc1 (stereo not shown) [Compound 260, N-((3-(4-amino-3-(4-((5-fluoro-2-methoxybenzamido)methyl)phenyl)-1H-pyrazolo[3,4-d]pyrimidin-1-yl)cyclohexyl)methyl)-N-methyl-1H-1,2,4-triazole-1-carboxamide] | 248, 249, 250, 253, 254, 256, 259, 260, 261, 264, 265, M^−1 · s^−1 | ≥ 6.00 | ≥ 6.00
10 | COc1ccc(F)cc1C(=O)NCc1ccc(-c2nn(C[C@H]3CCCCN3C(=O)n3cncn3)c(N)c2C(N)=O)cc1 [Compound 154, (R)-1-((1-(1H-1,2,4-triazole-1-carbonyl)piperidin-2-yl)methyl)-5-amino-3-(4-((5-fluoro-2-methoxybenzamido)methyl)phenyl)-1H-pyrazole-4-carboxamide] | 132, 134, 136, 137, 138, 140, 150, 152, 153, 154, 155, M^−1 · s^−1 | ≥ 6.00 | ≥ 6.00
11 | COc1ccc(F)cc1C(=O)NCc1ccc(-c2nn(C3CCCCN(C(=O)n4cncn4)C3)c(N)c2C(N)=O)cc1 (stereo not shown) [Compound 256, 1-(1-(1H-1,2,4-triazole-1-carbonyl)azepan-3-yl)-5-amino-3-(4-((5-fluoro-2-methoxybenzamido)methyl)phenyl)-1H-pyrazole-4-carboxamide] | 248, 249, 250, 253, 254, 256, 259, 260, 261, 264, 265, M^−1 · s^−1 | ≥ 6.00 | ≥ 6.00
12 | NC(=O)c1c(-c2ccc(Oc3ccccc3)cc2)nn2c1NCCC2C1CCN1C(=O)n1cncn1 (stereo not shown) [Compound 137, 7-(1-(1H-1,2,4-triazole-1-carbonyl)azetidin-2-yl)-2-(4-phenoxyphenyl)-4,5,6,7-tetrahydropyrazolo[1,5-a] pyrimidine-3-carboxamide] | 132, 134, 136, 137, 138, 140, 150, 152, 153, 154, 155, M^−1 · s^−1 | < 6.00 | ≥ 6.00
13 | COc1ccc(F)cc1C(=O)NCc1ccc(-c2nn(C(CCCN(C)C(=O)n3cncn3)N(C)C)c3ncnc(N)c23)cc1 (stereo not shown) [Compound 254, N-(4-(4-amino-3-(4-((5-fluoro-2-methoxybenzamido)methyl)phenyl)-1H-pyrazolo[3,4-d]pyrimidin-1-yl)-4-(dimethyl-amino)butyl)-N-methyl-1H-1,2,4-triazole-1-carboxamide] | 248, 249, 250, 253, 254, 256, 259, 260, 261, 264, 265, M^−1 · s^−1 | < 6.00 | < 6.00
14 | COc1ccc(F)cc1C(=O)NCc1ccc(-c2nn(C[C@@H]3C[C@@H](C)CCN3C(=O)n3cnnc3)c(N)c2C(N)=O)cc1 [Compound 264, 5-amino-3-(4-((5-fluoro-2-methoxybenzamido)methyl)phenyl)-1-(((2S,4S)-4-methyl-1-(4H-1,2,4-triazole-4-carbonyl)piperidin-2-yl)methyl)-1H-pyrazole-4-carboxamide] | 248, 249, 250, 253, 254, 256, 259, 260, 261, 264, 265, M^−1 · s^−1 | ≥ 6.00 | ≥ 6.00
15 | NC(=O)c1c(-c2ccc(Oc3ccccc3)cc2)nn(C2CCCC3C2CCN3C(=O)n2cncn2)c1N (stereo not shown) [Compound 253, 1-(1-(1H-1,2,4-triazole-1-carbonyl)octahydro-1H-indol-4-yl)-5-amino-3-(4-phenoxyphenyl)-1H-pyrazole-4-carboxamide] | 248, 249, 250, 253, 254, 256, 259, 260, 261, 264, 265, M^−1 · s^−1 |  | 
